Patent US8895511B2, “Use of sarcoplasmic CA2+-ATPase type 2 protein for diagnosing and treating learning or mental disorders” (priority 2009, dated 2014)

Experiments:
[1] = system: CA3-CA1 synapses in acute hippocampal slices; assay: Paired-pulse facilitation (PPF) of fEPSPs, field potential recordings in hippocampal slices; type: cell-based, mouse
[2] = system: CA3-CA1 synapses in acute hippocampal slices; assay: PTP and LTP of fEPSPs induced by 200-Hz tetanization in hippocampal slices; type: cell-based, mouse; conditions: CPA or thapsigargin (4 μm); for fEPSP5 (PTP, 5 minutes after tetanization) as % of that in vehicle-treated Df(16)1/+ slices / fEPSP360 (LTP, 6 hours post-tetanus) as % of that in vehicle-treated Df(16)1/+ slices: slices from mature Df(16)1/+ mice
[3] = WT mice, 200-Hz induction protocol

Structure (SMILES) | PPF ([1]; Df(16)1/+ mice, 20-ms interval, CPA added to the bath solution) | PPF ([1]; Df(16)1/+ mice, 50-ms interval, CPA added to the bath solution) | PPF ([1]; WT mice, 20-ms interval, in the presence of CPA) | PPF ([1]; WT mice, 50-ms interval, in the presence of CPA) | fEPSP5 (PTP, 5 minutes after tetanization) as % of that in vehicle-treated Df(16)1/+ slices ([2]; 200-Hz tetanization) [%] | fEPSP360 (LTP, 6 hours post-tetanus) as % of that in vehicle-treated Df(16)1/+ slices ([2]; 200-Hz tetanization) [%] | effect on enhancement of PTP and LTP ([2]; Df(16)1/+ mice, 200-Hz tetanization) | WT fEPSP5 in the presence vs absence of inhibitor [2, 3] | WT fEPSP360 in the presence vs absence of inhibitor [2, 3]
CC(=O)C1=C(O)[C@@H]2[C@H]3c4c[nH]c5cccc(c45)C[C@H]3C(C)(C)N2C1=O [CPA, cyclopiazonic acid] | 1.78±0.13 | 1.76±0.09 | 1.64±0.11 | 1.61±0.05 | 45 | 60 | – | – | –
C/C=C(/C)C(=O)O[C@H]1C(C)=C2[C@H]([C@@H]1OC(=O)CCCCCCC)[C@@](C)(OC(C)=O)C[C@H](OC(=O)CCC)[C@@]1(O)[C@H]2OC(=O)[C@@]1(C)O [thapsigargin] | – | – | – | – | 69 | 57 | rescued the enhancement of PTP and LTP | no significant difference | no significant difference
